For orientation: microsomal CLint means the rate of metabolic loss divided by the concentration. Low values mean greater metabolic stability, high ones faster metabolism. The Papp A→B is the apparent permeability from the apical to the basolateral side of a cell layer. A higher Papp A→B goes with ready permeation.

Data on 2 compounds can be found in US20220324817A1, “QUINAZOLINE PRODRUGS FOR THE TREATMENT OF VIRAL INFECTIONS AND FURTHER DISEASES” (Janssen Sciences Ireland Unlimited Company, priority 2019, published 2022).

Common to all, as to type: in vitro ADME
The nature of series [1]: Intrinsic clearance in human liver microsomes. Conditions: 37° C., 1 μM compound, 1 mg/mL microsomal protein. The protocol:
(§1) Intrinsic clearance (CLint). CLint was determined in rat and human liver microsomes. Incubations were performed at 37° C., at a concentration of 1 μM of compound, and a microsomal protein concentration of 1 mg/mL. Serial samples were removed at intervals of up to 60 min and analyzed for the concentration of compound to determine its intrinsic clearance rate. Compound was incubated in rat and human hepatocytes (10^6 cells/mL) at 1 μM for 0, 10, 20, 40, 60 and 120 min. Serial samples were removed at intervals of up to 120 min and analyzed for the concentration of compound to determine its intrinsic clearance rate. Permeability and Efflux in vitro. The in vitro permeability and potential to be transported by P-glycoprotein (P-gp) was determined using an MDCK cell line transfected with human MDR1 (P-glycoprotein). […] Permeability in the A→B direction in absence and presence of GF120918 and in the B→A direction in absence of GF120918 was measured by monitoring the appearance of the test compound on the opposite side of the membrane using a specific LC-MS/MS method. The efflux ratio (B→*A-GF120918/A→B-GF120918) was calculated to determine whether the test compound was a P-gp substrate. […] Plasma stability is measured in rat and human plasma for 7 or 24 h at 37° C. […] Samples were analyzed by LC-MS/MS (without internal standard). […] Half-life (t1/2 in hours) is calculated from those data. […]
(In general: Liver microsomes are a subcellular fraction often used to study metabolism.)

Series [2] is described as follows: Intrinsic clearance in rat liver microsomes. As to conditions: 37° C., 1 μM compound, 1 mg/mL microsomal protein. The protocol: as §1
For series [3], the system named is P-glycoprotein (human MDR1). The series can be described thus: Permeability and efflux in vitro in MDCK-MDR1 cell line. Conditions: dog, MDCK-MDR1 cells, in absence of GF120918. The method, then:
as §1

Take `CCCC[C@H](CO)Nc1nc(NC(=O)OCC)nc2c(C)cccc12` [Compound 1, ethyl (R)-(4-((1-hydroxyhexan-2-yl)amino)-8-methylquinazolin-2-yl)carbamate]: the intrinsic metabolic clearance (microsomal CLint) at 1 μM in series [1] came out at 47 µL/min/mg; in series [2], 109 µL/min/mg. Further, the Papp A→B in series [3] was determined as 8.22 ×10⁻⁶ cm/s. Also, in series [3] (read-out: Efflux ratio B -> A/A -> B), the efflux ratio is 4.5.
Compound `CCCC[C@H](COC(=O)C(C)C)Nc1nc(NC(=O)C(C)C)nc2c(C)cccc12` [Compound 2, (R)-2-((2-isobutyramido-8-methylquinazolin-4-yl)amino)hexyl isobutyrate] registered a microsomal CLint at 1 μM in series [2] of 84 µL/min/mg.
